Test results as given in patent publication US9278968B2, “Imidazopyridine compounds” (ASTELLAS PHARMA INC., priority 2012, dated 2016).

Experiments:
[1] = molecular target: human purified sGC (heterodimer of sGCα1 and sGCβ1) (Homo sapiens (Human), UniProt Q02108+Q02153); experiment: sGC activation test (cGMP produced, HTRF); assay type: biochemical; conditions: for EC50: maximum activity of Preparation Example 200 compound (maximum 100 μM) taken as 100%, with SNP, read-out: EC50 (concentration giving 50% of maximum activity)
Description: The activity of sGC was evaluated by measuring the amount of cGMP produced by human purified sGC.
Using an sGCα 1 gene (NCBI accession No. BC028384.2) and an sGCβ1 gene (NCBI accession No. BC047620.1), an N-terminal FLAG tag-fused sGCα1 and an sGCβ1 expression baculovirus were prepared. These viruses were transfected into insect cells Sf9 (Cat. No. 11496-015, Gibco) to express a protein. From the cell lysates of the insect cells, heterodimers of the N-terminal FLAG tag-fused sGCα1 and sGCβ1 were purified with an M2 Affinity Gel (Sigma-Aldrich, Inc.) to obtain a human sGC.
An Example compound was dissolved in DMSO and diluted 20-fold with ultrapure water. 2 μL of the diluted Example compound solution (maximum concentration of 100 μM), 2 μL of a substrate solution [0.5 μM triethanolamine buffer solution, 0.03 μM dithiothreitol, 0.01 μM GTP, 0.04 μM MgCl2, and 0.03 μM sodium nitroprusside (SNP)], and 6 μL of a human enzyme suspension were added to 384-well plates (manufactured by Greiner Bio-One), and incubated at room temperature for one hour. The measurement of the amount of cGMP was carried out, using an HTRF reagent (Cisbio).
The sGC activation action of the Example compound was calculated as an Example compound concentration which gives 50% of a maximum activity (EC50), in which the maximum activity by the addition of a compound shown in Preparation Example 200, 8-(cyclohexylmethoxy)-N-[(1R)-2-hydroxy-1-phenylethyl]-2-methylimidazo[1,2-a]pyridine-3-carboxamide hydrochloride (maximum 100 μM), is taken as 100%. Further, the maximum activity of sGC with the addition of 8-(cyclohexylmethoxy)-N-[(1R)-2-hydroxy-1-phenylethyl]-2-methylimidazo[1,2-a]pyridine-3-carboxamide hydrochloride is 10-fold or more relative to the sGC activation without the addition of the compound, and it is recognized that the compound has a good sGC activating action. […] The test results of some Example compounds that are the compounds of the formula (I) of the present invention are shown below. Further, in Tables, Ex. represents Example number.

[2] = tested on: hind limb blood flow in rats anesthetized with pentobarbital; experiment: Blood flow increasing action in vivo (hind limb blood flow, anesthetized rats); design: species or system Wistar male rats; conditions: oral, 2 hours after administration, effective when blood flow rate 130% or more of solvent group
Description: The hind limb blood flow increasing action in rats anesthetized with pentobarbital was confirmed by the following test method.
Wistar male rats, 11- to 14-week (Japan SLC, Inc.) were used. An administration liquid was prepared by adding N,N-dimethyl formamide, Polyethylene Glycol 400, TWEEN 80, a 0.5% methyl cellulose aqueous solution, a 0.5 M aqueous sodium hydrogen carbonate solution, and 0.1 M hydrochloric acid to the test compound and dissolving the Example compound in an appropriate manner depending on the compound. The prepared administration liquid was orally administered, and 2 hours later, the hind limb blood flow increasing action was evaluated under anesthesia with intraperitoneally administration of 60 mg/kg of pentobarbital The hind limb blood flow was measured using a laser blood flow imaging device (PIM II Integral). By taking the average blood flow rate of a group with the administration of a solvent as 100%, the compound was evaluated to be effective when the blood flow rate was 130% or more by the administration of the compound.

Sequence of human purified sGC (heterodimer of sGCα1 and sGCβ1) (Q02108 whole entry): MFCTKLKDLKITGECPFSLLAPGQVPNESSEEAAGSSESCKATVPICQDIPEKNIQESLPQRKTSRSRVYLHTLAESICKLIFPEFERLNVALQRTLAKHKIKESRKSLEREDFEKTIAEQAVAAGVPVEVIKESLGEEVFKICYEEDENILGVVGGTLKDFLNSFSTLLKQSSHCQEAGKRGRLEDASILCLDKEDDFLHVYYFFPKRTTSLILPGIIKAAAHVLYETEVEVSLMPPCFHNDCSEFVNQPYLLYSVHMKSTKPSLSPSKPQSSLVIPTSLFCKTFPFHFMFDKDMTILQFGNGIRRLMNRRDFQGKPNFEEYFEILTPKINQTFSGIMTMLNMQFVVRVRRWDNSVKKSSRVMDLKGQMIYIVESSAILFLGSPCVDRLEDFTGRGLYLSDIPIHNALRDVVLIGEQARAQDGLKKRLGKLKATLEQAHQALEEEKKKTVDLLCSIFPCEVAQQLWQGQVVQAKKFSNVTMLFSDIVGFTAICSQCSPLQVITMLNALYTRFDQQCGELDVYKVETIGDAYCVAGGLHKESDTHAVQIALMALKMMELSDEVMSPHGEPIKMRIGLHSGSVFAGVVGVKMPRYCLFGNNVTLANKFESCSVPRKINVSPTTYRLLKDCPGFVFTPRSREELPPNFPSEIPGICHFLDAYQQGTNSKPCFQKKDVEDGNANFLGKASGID
Sequence of human purified sGC (heterodimer of sGCα1 and sGCβ1) (Q02153 whole entry): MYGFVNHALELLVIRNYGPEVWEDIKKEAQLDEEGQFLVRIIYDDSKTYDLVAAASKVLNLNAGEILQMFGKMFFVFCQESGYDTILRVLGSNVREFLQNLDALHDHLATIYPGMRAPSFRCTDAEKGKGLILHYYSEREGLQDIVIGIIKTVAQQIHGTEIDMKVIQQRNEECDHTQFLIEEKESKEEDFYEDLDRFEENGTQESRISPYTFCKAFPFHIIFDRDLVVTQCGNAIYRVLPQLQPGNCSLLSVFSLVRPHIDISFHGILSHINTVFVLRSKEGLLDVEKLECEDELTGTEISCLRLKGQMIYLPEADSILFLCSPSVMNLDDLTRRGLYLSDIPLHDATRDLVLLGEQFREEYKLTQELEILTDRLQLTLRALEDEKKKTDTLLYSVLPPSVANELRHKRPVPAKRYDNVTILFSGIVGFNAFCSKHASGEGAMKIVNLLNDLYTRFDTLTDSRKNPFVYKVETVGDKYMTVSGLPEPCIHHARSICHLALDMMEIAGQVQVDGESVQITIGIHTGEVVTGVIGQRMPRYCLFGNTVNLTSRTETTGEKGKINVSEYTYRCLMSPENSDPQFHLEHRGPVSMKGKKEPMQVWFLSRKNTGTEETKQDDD

Compound | EC50 [1] | further results
Cc1nc2c(OCc3c(F)cccc3F)cccn2c1C(=O)N[C@@](C)(CO)c1ccc(CO)cc1 (stereo in doubt) [Example 107a, 8-[(2,6-difluorobenzyl)oxy]-N-{1-hydroxy-2-[4-(hydroxymethyl)phenyl]propan-2-yl}-2-methylimidazo[1,2-a]pyridine-3-carboxamide] | 1.5 µM | hind limb blood flow increasing action ([2]; 3 mg/kg): exhibited a blood flow increasing action
Cc1nc2c(OCc3c(F)cccc3F)cccn2c1C(=O)N[C@@](C)(CO)c1ccccc1F [Example 18] | 1.6 µM | hind limb blood flow increasing action ([2]; 1 mg/kg): exhibited a blood flow increasing action
Cc1nc2c(OCc3c(F)cccc3F)cccn2c1C(=O)N[C@@](C)(CO)c1ncc(CO)s1 [Example 19] | 3.6 µM | hind limb blood flow increasing action ([2]; 1 mg/kg): exhibited a blood flow increasing action
Cc1nc2c(OCc3c(F)cccc3F)cccn2c1C(=O)NCc1ccccc1[C@@H](O)[C@@H](C)O [Example 31] | 4.9 µM | hind limb blood flow increasing action ([2]; 3 mg/kg): exhibited a blood flow increasing action
CCc1nnc(C(C)(CO)NC(=O)c2c(C)nc3c(OCC4CCCCC4)cccn23)o1 (centres unmarked) [Example 86] | 5.6 µM | 
Cc1nc2c(OCC3CCCCC3)cccn2c1C(=O)NC(C)(CO)c1nnc(C2CC2)o1 (centres unmarked) [Example 88] | 5.3 µM | 
Cc1nc2c(OCC3CCCCC3)cccn2c1C(=O)NC(C)(CO)c1nnc(C(F)(F)F)o1 (centres unmarked) [Example 92] | 1.4 µM | 
Cc1nc2c(OCc3c(F)cccc3F)cccn2c1C(=O)NC(CO)(CO)c1ccn(C)n1 [Example 95] | 18 µM | 
Cc1nc2c(OCC3CCCCC3)cccn2c1C(=O)NC(CO)(CO)c1nnn(C(F)F)n1 [Example 97] | 3.5 µM | 
Cc1nnc(C(CO)(CO)NC(=O)c2c(C)nc3c(OCC4CCCCC4)cccn23)o1 [Example 98] | 24 µM | 
CCc1nnc(C(CO)(CO)NC(=O)c2c(C)nc3c(OCC4CCCCC4)cccn23)o1 [Example 99] | 17 µM | 
Cc1nc2c(OCC3CCCCC3)cccn2c1C(=O)NC(CO)(CO)c1nnc(C2CC2)o1 [Example 100] | 20 µM | 
CCn1cc(C(CO)(CO)NC(=O)c2c(C)nc3c(OCc4c(F)cccc4F)cccn23)cn1 [Example 101] | 26 µM | 
Cc1nc2c(OCC3CCCCC3)cccn2c1C(=O)N[C@@](C)(CO)c1cccc(-c2nnn(C)n2)c1 [Example 102] | 2.6 µM | 
Cc1nc2c(OCC3CCCCC3)cccn2c1C(=O)NC(C)(CO)c1nnn(CCO)n1 (centres unmarked) [Example 104] | 7.5 µM | 
Cc1nn(C)cc1C(CO)(CO)NC(=O)c1c(C)nc2c(OCc3c(F)cccc3F)cccn12 [Example 109] | 23 µM | 
Cc1nc2c(OCc3c(F)cccc3F)cccn2c1C(=O)N[C@@H](CO)c1nnn(C(C)C)n1 [Example 110] | 12 µM | 
Cc1nc2c(OCC3CCCCC3)cccn2c1C(=O)N[C@@](C)(CO)c1cccc(-c2nn[nH]n2)c1 [Example 111] | 0.56 µM | 
Cc1nc2c(OCC3CCCCC3)cccn2c1C(=O)N[C@@H](CO)c1ccccc1.Cl [Preparation Example 200, 8-(cyclohexylmethoxy)-N-[(1R)-2-hydroxy-1-phenylethyl]-2-methylimidazo[1,2-a]pyridine-3-carboxamide hydrochloride, reference compound] |  | maximum activity of sGC relative to sGC activation without the addition of the compound ([1]; maximum 100 μM): ≥ 10 fold
OCc1ccc(-c2nn(Cc3ccccc3)c3ccccc23)o1 [YC-1, [5-(1-benzyl-1H-indazol-3-yl)-2-furyl]methanol, reference compound] | 50 µM | maximum activity relative to maximum activity of Preparation Example 200 compound ([1]; maximum activity of Preparation Example 200 compound = 100%): 52%

The next lines start with results.

EC50 [1] | Compound | further results
4.6 µM | Cc1nc2c(OCc3c(F)cccc3F)cccn2c1C(=O)N[C@@](C)(CO)c1nnn(C)n1 (stereo in doubt) [Example 108a, 8-[(2,6-difluorobenzyl)oxy]-N-[1-hydroxy-2-(2-methyl-2H-tetrazol-5-yl)propan-2-yl]-2-methylimidazo[1,2-a]pyridine-3-carboxamide] | hind limb blood flow increasing action ([2]; 0.3 mg/kg): exhibited a blood flow increasing action
5.5 µM | CCc1nnc(C(C)(CO)NC(=O)c2c(C)nc3c(OCc4c(F)cccc4F)cccn23)o1 (centres unmarked) [Example 1, 8-[(2,6-difluorobenzyl)oxy]-N-[2-(5-ethyl-1,3,4-oxadiazol-2-yl)-1-hydroxypropan-2-yl]-2-methylimidazo[1,2-a]pyridine-3-carboxamide] | hind limb blood flow increasing action ([2]; 1 mg/kg): exhibited a blood flow increasing action
1.7 µM | Cc1nc2c(OCc3c(F)cccc3F)cccn2c1C(=O)NC(C)(CO)c1nnn(C(F)F)n1 (centres unmarked) [Example 6, 8-[(2,6-difluorobenzyl)oxy]-N-{2-[2-(difluoromethyl)-2H-tetrazol-5-yl]-1-hydroxypropan-2-yl}-2-methylimidazo[1,2-a]pyridine-3-carboxamide] | hind limb blood flow increasing action ([2]; 0.1 mg/kg): exhibited a blood flow increasing action
9.6 µM | Cc1nc2c(OCc3c(F)cccc3F)cccn2c1C(=O)NC(C)(CO)c1nnn(C)n1 (centres unmarked) [Example 7a, 8-[(2,6-difluorobenzyl)oxy]-N-[1-hydroxy-2-(2-methyl-2H-tetrazol-5-yl)propan-2-yl]-2-methylimidazo[1,2-a]pyridine-3-carboxamide] | hind limb blood flow increasing action ([2]; 3 mg/kg): exhibited a blood flow increasing action
1.3 µM | Cc1nc2c(OCc3c(F)cccc3F)cccn2c1C(=O)N[C@@](C)(CO)c1ccccn1 [Example 11] | hind limb blood flow increasing action ([2]; 1 mg/kg): exhibited a blood flow increasing action
6.4 µM | Cc1nnc(C(C)(CO)NC(=O)c2c(C)nc3c(OCc4c(F)cccc4F)cccn23)o1 (centres unmarked) [Example 35] | hind limb blood flow increasing action ([2]; 0.3 mg/kg): exhibited a blood flow increasing action
11 µM | Cc1nc2c(OCc3c(F)cccc3F)cccn2c1C(=O)NC(C)(CO)c1ccn(C)n1 (centres unmarked) [Example 36] | hind limb blood flow increasing action ([2]; 1 mg/kg): exhibited a blood flow increasing action
7.1 µM | Cc1nnc(C(C)(CO)NC(=O)c2c(C)nc3c(OCc4c(F)cccc4F)cccn23)s1 (centres unmarked) [Example 37] | hind limb blood flow increasing action ([2]; 1 mg/kg): exhibited a blood flow increasing action
2.5 µM | Cc1cnc(C(C)(CO)NC(=O)c2c(C)nc3c(OCc4c(F)cccc4F)cccn23)o1 (centres unmarked) [Example 38] | hind limb blood flow increasing action ([2]; 1 mg/kg): exhibited a blood flow increasing action
4.6 µM | Cc1noc(C(C)(CO)NC(=O)c2c(C)nc3c(OCc4c(F)cccc4F)cccn23)n1 (centres unmarked) [Example 39] | hind limb blood flow increasing action ([2]; 1 mg/kg): exhibited a blood flow increasing action
3.8 µM | Cc1csc(C(C)(CO)NC(=O)c2c(C)nc3c(OCc4c(F)cccc4F)cccn23)n1 (centres unmarked) [Example 40] | hind limb blood flow increasing action ([2]; 3 mg/kg): exhibited a blood flow increasing action
5.9 µM | Cc1nc2c(OCc3c(F)cccc3F)cccn2c1C(=O)NC(C)(CO)c1nnc(C2CC2)o1 (centres unmarked) [Example 87] | 
21 µM | Cc1nc2c(OCc3c(F)cccc3F)cccn2c1C(=O)NC(C)(CO)c1cnn(C)c1C (centres unmarked) [Example 93] | 
14 µM | Cc1nn(C)cc1C(C)(CO)NC(=O)c1c(C)nc2c(OCc3c(F)cccc3F)cccn12 (centres unmarked) [Example 94] | 
6.1 µM | Cc1nc2c(OCc3c(F)cccc3F)cccn2c1C(=O)NC(C)(CO)c1nnn(CC2CC2)n1 (centres unmarked) [Example 103] | 
11 µM | Cc1nc2c(OCc3c(F)cccc3F)cccn2c1C(=O)NC(C)(CO)c1nnn(CC(C)(C)O)n1 (centres unmarked) [Example 105, 8-[(2,6-difluorobenzyl)oxy]-N-{1-hydroxy-2-[2-(2-hydroxy-2-methylpropyl)-2H-tetrazol-5-yl]propan-2-yl}-2-methylimidazo[1,2-a]pyridine-3-carboxamide] | 
9.1 µM | Cc1nc2c(OCc3c(F)cccc3F)cccn2c1C(=O)NC(C)(CO)c1nnn(CC(C)O)n1 (centres unmarked) [Example 106] | 
